Data set [1] has as its system animals. Conditions: in vivo. The source says:
The toxicological profile of the Cupuassuamido propyl betaine was compared to Cocamido propyl betaine.

Data set [2] concerns Red Blood Cell.
Description: The Red Blood Cell Test (RBC) was carried out with the combination of Sodium Lauryl Ether Sulfate (SLES) and Cupuassuamido Propyl Betaine (CupAPB) or Sodium Lauryl Ether Sulfate (SLES) and Cocamido Propyl Betaine (CAPB) in different concentrations.

With Cocamido propyl betaine, in data set [1], the “Cumulative Dermic Irritation” value is given as “Moderately irritating”, the “Ocular Irritability” value was “Moderately irritating” and the “Primary Dermic Irritation” value is on record as “Minimum irritating”.

Regarding Cupuassuamido propyl betaine, in data set [1], the “Cumulative Dermic Irritation” value was “Minimum irritating”, the “Ocular Irritability” value was “Not irritating” and the “Primary Dermic Irritation” value is given as “Not irritating”.

For the substance Sodium Laureth Sulfate [SLES (7.10%)], in data set [2], the H/O came out at 17.1, the “hemolysis (H)” value was determined as 275.0 and the “oxidation (O)” value is given as 16.10.

(Values after patent publication US7951842B2, “Use of Cupuassu butter based amphoteric amidoamines as amphoteric surfactants” (Cognis Brasil Ltda., priority 2004, dated 2011).)
